From patent publication US20240207268A1, “PYRAZOLYLPYRIMIDINES FOR TREATING MALIGNANT SOLID TUMOR” (BIOTHERYX, INC., priority 2021, published 2024)

Experiments:
[1] = GLP 28-day oral toxicology study of compound A22 in Sprague Dawley rats; type: in vivo; settings: rat, in vivo, once daily oral gavage, di-HCl or di-p-toluenesulfonate salt, read-out: NOAEL (no-observed-adverse-effect-level) dose
Description: (§1) The toxicology studies of compound A22 were performed in Sprague Dawley rats and Beagle dogs. In GLP, 28-day (once daily, 7 days per week) studies, compound A22 was administered as a di-HCl salt or di-p-toluenesulfonate salt by oral gavage. The results are summarized in Tables 1 and 2, where HNSTD is highest nonseverely toxic dose; NOAEL is no-observed-adverse-effect-level; and STDio is severely toxic dose in 10%.

Sprague Dawley rats = assay: as above; type: in vivo; settings: once daily oral gavage, di-HCl or di-p-toluenesulfonate salt
Description: as §1

[2] = Steady state toxicokinetics of compound A22 in Sprague Dawley rats (28-day study); settings: rat, in vivo, oral gavage
Description: as §1

[3] = GLP 28-day oral toxicology study of compound A22 in Beagle dogs; type: in vivo; settings: dog, in vivo, once daily oral gavage, di-HCl or di-p-toluenesulfonate salt, read-out: NOAEL (no-observed-adverse-effect-level) dose
Description: as §1

Beagle dogs = assay: as above; type: in vivo; settings: once daily oral gavage, di-HCl or di-p-toluenesulfonate salt
Description: as §1

[4] = Steady state toxicokinetics of compound A22 in Beagle dogs (28-day study); settings: dog, in vivo, oral gavage
Description: as §1

Solubility in water = type: physicochemical; settings: in water at 25° C.
[5] = female rats, 0.7 mg/kg/day (NOAEL)
[6] = female rats, 2.5 mg/kg/day (STD10)
[7] = male rats, 0.7 mg/kg/day (NOAEL)
[8] = male rats, 2.5 mg/kg/day (STD10)
[9] = female dogs, 0.06 mg/kg/day (NOAEL)
[10] = female dogs, 0.2 mg/kg/day (HNSTD)
[11] = male dogs, 0.06 mg/kg/day (NOAEL)
[12] = male dogs, 0.2 mg/kg/day (HNSTD)

## Cn1ncc(-c2nc(N[C@H]3CC[C@H](N)CC3)ncc2Cl)c1CC1CC1 [A22, (1r,4r)-N^1-(5-chloro-4-(5-(cyclopropylmethyl)-1-methyl-1H-pyrazol-4-yl)pyrimidin-2-yl)cyclohexane-1,4-diamine]
[1]
  NOAEL at 28 day: 0.7 mg/kg/day
Sprague Dawley rats
  STD10 (severely toxic dose in 10%) dose: 2.5 mg/kg/day
[2]; [5]
  AUC(0-t): 0.16 µg·h/mL
  Cmax: 0.0136 µg/mL
[2]; [6]
  AUC(0-t): 2.39 µg·h/mL
  Cmax: 0.156 µg/mL
[2]; [7]
  AUC(0-t): 0.152 µg·h/mL
  Cmax: 0.0137 µg/mL
[2]; [8]
  AUC(0-t): 2.52 µg·h/mL
  Cmax: 0.184 µg/mL
[3]
  NOAEL at 28 day: 0.06 mg/kg/day
Beagle dogs
  HNSTD (highest nonseverely toxic dose): 0.2 mg/kg/day
[4]; [9]
  AUC(0-t): 0.129 µg·h/mL
  Cmax: 0.00755 µg/mL
[4]; [10]
  AUC(0-t): 0.471 µg·h/mL
  Cmax: 0.0306 µg/mL
[4]; [11]
  AUC(0-t): 0.102 µg·h/mL
  Cmax: 0.00638 µg/mL
[4]; [12]
  AUC(0-t): 0.567 µg·h/mL
  Cmax: 0.0344 µg/mL

## Cc1ccc(S(=O)(=O)O)cc1.Cc1ccc(S(=O)(=O)O)cc1.Cn1ncc(-c2nc(N[C@H]3CC[C@H](N)CC3)ncc2Cl)c1CC1CC1 [crystalline di-p-toluenesulfonate salt, di-p-toluensulfonate of (1r,4r)-N^1-(5-chloro-4-(5-(cyclopropylmethyl)-1-methyl-1H-pyrazol-4-yl)pyrimidin-2-yl)cyclohexane-1,4-diamine]
Solubility in water
  solubility: about 2 mg/mL
